Experimental data as given in patent publication US20100227793A1, “Compositions and Methods for Treating Amyotrophic Lateral Sclerosis” (priority 2009, published 2010).
“Also recorded” adds a separate entry of the source.

How the values were obtained:
[1] = system: inhibition of anterograde FAT by G93A-SOD1; assay: Co-perfusion of G93A-SOD1 with kinase inhibitors in squid axoplasm (vesicle motility assay); format: cell-based; conditions: for prevention of the inhibition of anterograde FAT induced by G93A-SOD1: co-perfused with recombinant G93A-SOD1 in axoplasm
Method: Increased phosphorylation of neurofilament indicated altered kinase activity with mutant SOD1 and kinases represent a major mechanism for the regulation of conventional kinesin (Donelan, et al. (2002) J. Biol. Chem. 277:24232-42; Morfini, et al. (2006) Nat. Neurosci. 9:907-16; Morfini, et al. (2002) EMBO J. 23:281-93; Morfini, et al. (2001) Dev. Neurosci. 23:364-76). Accordingly, it was determined whether specific protein kinases mediated the effect of mutant SOD1 on anterograde FAT. To this end, axoplasms were co-perfused with recombinant G93A-SOD1 and specific pharmacological or peptide inhibitors of protein kinases. Co-perfusion approaches have facilitated the identification of kinase-dependent pathogenic pathways in other models.
SB203580 is a highly specific pharmacological kinase inhibitor of the mitogen-activated protein kinase (MAPK) p38, and its specificity has been evaluated for more than 100 kinases (Fabian, et al. (2005) Nat. Biotechnol. 23:329-36).
In addition to the docking interactions of MAPKs with MKKs, substrates and regulators there are specific motifs that control the interactions of MKKKs and MKKs. A docking site termed DVD (domain for versatile docking) is found in several MKKs including MKK3 and MKK6, which are involved in p38 regulation. […] Observations of p38 activation in an ALS mouse model prompted the evaluation of the role of MKKs in mediating the inhibitory effect of mutant SOD1 on FAT. To this end, pharmacological inhibitors of MKKKs were co-perfused along with SOD1-G93A in squid axoplasm. The MLK-specific inhibitor CEP11004 (Ganguly, et al. (2004) J. Neurochem. 88(2):469) was ineffective, but co-perfusion of mutant SOD1 with DVD peptide prevented the effects of mutant SOD1 on FAT. The DVD site on MKKs is required for docking and activation by a subset of upstream MKKKs (ASK1, TAK1, etc.), and peptides based on this sequences prevents MAPK activation in cultured cells (Takekawa, et al. (2005) Mol. Cell. 18(3):295).

[2] = system: fast axonal transport (FAT), anterograde (conventional kinesin-dependent) and retrograde (CDyn-dependent); assay: Vesicle motility assays in isolated squid axoplasm perfused with SOD1 polypeptides; format: cell-based; conditions: polypeptides perfused at 5 μM; video-enhanced microscopy over 50 minutes
Method: Although the axonal compartment represents a critical pathogenic target in ALS, axon-specific effects of mutant SOD1 have not been previously addressed. […] However, it was not clear whether those defects resulted from pathogenic events in the neuronal cell body, or from alterations of cellular processes within the axonal compartment (Conforti, et al. (2007) Trends Neurosci. 30:159-66). Therefore, axon-autonomous effects of pathogenic SOD1 on FAT were evaluated using vesicle motility assays in isolated squid axoplasm, which lacks both nuclear and protein synthetic synthesis compartments. This experimental system allows for quantitative analysis of MBOs moving in both anterograde (conventional kinesin-dependent) and retrograde (cytoplasmic dynein-dependent) FAT rates. Further, the lack of plasma membrane in this preparation facilitates an evaluation of the effects of neuropathogenic proteins on FAT.
Highly purified (>95%), recombinant forms of wild-type SOD1 (WT-SOD1) and […] fALS-related SOD1 mutants (G93A-SOD1, G85R-SOD1, H46R and A4V-SOD1) were according to standard methods (Strange, et al. (2003) J. Mol. Biol. 328:877-891). Polypeptides were perfused at 5 μM concentration, and both anterograde (conventional kinesin-dependent) and retrograde (CDyn-dependent) FAT rates analyzed by video-enhanced microscopy over 50 minutes. Perfusion of wild type SOD1 (WT-SOD1) had no effect on either direction of FAT. […] Further, the presence of ATP (5 mM) in the perfusion buffer also ruled out mutant SOD1-induced deficits in ATP production.

[3] = system: N2A cells stably transfected with G85R-SOD1; assay: Caspase-3 activity assay, cells exposed to cyclosporine (CsA); format: cell-based; conditions: various concentrations of CsA, presence or absence of inhibitor
Method: (§1) Multiple studies have documented activation of apoptotic mechanism in association with mutant SOD1 expression (Pasinelli, et al. (2004) Neuron 43:19-30). […] To evaluate the role of p38 in this process, cell viability (LDH) and caspase activity assays were performed using N2A cells stably transfected with WT-SOD1 or G85R-SOD1 constructs. […] N2A cells were exposed to various concentrations of CsA in the presence or absence of the p38 inhibitor SB203580.

[4] = system: N2A cells stably transfected with G85R-SOD1; assay: Cell viability (LDH) assay, cells exposed to cyclosporine (CsA); format: cell-based; conditions: various concentrations of CsA, presence or absence of inhibitor
Method: as §1

NF220 (neurofilament) = assay: Metabolic labeling of isolated sister axoplasms with 32P-ATP, autoradiography/PHOSPHORIMAGER; format: cell-based, squid; conditions: compared to WT-SOD1-perfused sister axon; 50-minute incubation; n=4; p≦0.0284
Method: To determine whether mutant SOD1 could induce activation of axonal kinases, metabolic labeling experiments were performed in isolated axoplasms. These procedures helped evaluate effects of WT-SOD1 and G93-SOD1 polypeptides on the phosphorylation pattern of axonal proteins. Two axons from the same squid (“sister” axons) were dissected and extruded. One axon was perfused with WT-SOD1, whereas the contralateral “sister” axon was perfused with G93A-SOD1 in the presence of P^32-radiolabelled ATP. After a 50-minute incubation, axoplasms were lysed and analyzed by autoradiography. Neurofilament (NF) proteins represent the major phosphoproteins proteins in both squid axoplasm and mammalian axons. Consistent with this, increased phosphorylation of NFs represents a well-documented feature early in the course of ALS.

JNK = assay: Immunoblot of sister axoplasms with activation-specific phosphoantibodies (JNK); format: cell-based, squid; conditions: G93A-SOD1 vs WT-SOD1-perfused axoplasms
Method: (§2) To refine this identification, activation of various p38 and other NF kinases were evaluated in “sister” axoplasms. […] Quantitative analysis of immunoblots indicated G93A-SOD1 induced approximately a 4-fold increase in p38 activity, compared to WT-SOD1 perfused of p38 (n=8).

ERK = assay: Immunoblot of sister axoplasms with activation-specific phosphoantibodies (ERK); format: cell-based, squid; conditions: G93A-SOD1 vs WT-SOD1-perfused axoplasms
Method: as §2

p38 = assay: Immunoblot of sister axoplasms with antibodies against phosphorylated, catalytically active p38; format: cell-based, squid; conditions: compared to WT-SOD1-perfused axoplasm; n=8
Method: as §2

GSK3 = assay: Immunoblot of sister axoplasms with activation-specific phosphoantibodies (GSK3); format: cell-based, squid; conditions: G93A-SOD1 vs WT-SOD1-perfused axoplasms
Method: as §2

[5] = system: fast axonal transport (FAT); assay: Vesicle motility assays in squid axoplasm perfused with recombinant active p38 isoforms; format: cell-based
Method: Four p38 genes exist in mammals (p38α, p38β, p38γ, and p38δ) (Kyriakis & Avruch (2001) Physiol. Rev. 81:807-69). The p38α and p38β kinases are major p38 isoforms within the nervous system (Lee, et al. (2000) J. Neurosci. Res. 60:623-31), as well as being the most prominent p38 isoforms expressed in motor neurons of the anterior horn spinal cord, the main cell type affected in ALS (Ackerley, et al. (2004) Mol. Cell. Neurosci. 26:354-64). The effect of specific p38 isoforms on FAT was evaluated using vesicle motility assays. The enzymatic activities of recombinant p38 isoforms were first normalized using in vitro kinase assays with ATF-2 as substrate.

[6] = system: KHC584 (first 584 amino acid residues of kinesin-1c); assay: In vitro kinase assay of recombinant p38α with KHC584; format: biochemical; conditions: sites mapped to Ser175 and Ser176 by LC/MS/MS
Excerpt: Although p38α was implicated in mediating the inhibitory effect of pathogenic SOD1 on FAT, specific p38α targets relevant to these effects needed to be determined (Bendotti, et al. (2005) Neurodegener. Dis. 2:128-34). […] These precedents prompted the determination of whether p38α could directly phosphorylate kinesin-1 subunits of conventional kinesin.
Liquid chromatography tandem mass spectrometry (LC/MS/MS) was used to map KHC584 residues phosphorylated by p38α. To this end, in vitro phosphorylated KHC584 was directly digested with trypsin for LC/MS/MS analysis. Trypsin digest products were fractioned on a C18 HPLC connected to an on-line electrospray ion trap mass spectrometer. Peptide identification was done using SEQUEST algorithm. KHC584 identity was confirmed by identification of multiple kinesin-1C peptides. A peptide corresponding to amino acids 174-188 with unequivocal evidence of phosphorylation by p38α was identified based on spectrum analysis, cross correlation and delta correlation values. Tandem mass spectrometry analysis (MS/MS) by collision-induced dissociation further mapped phosphorylation on both Ser175 and Ser176, consistent with studies showing phosphorylation of Ser176 by the MAPK JNK3. Remarkably, serines 175 and 176 are conserved among squid, mouse and human kinesin-1s (FIG. 4). […]

With CEP11004 the “prevention of the inhibition of anterograde FAT induced by G93A-SOD1” value [1] was “ineffective”.

In the case of “WT-SOD1: highly purified recombinant wild-type SOD1”, the “effect on anterograde FAT rate” value [2] is reported as “no effect” and the “effect on retrograde FAT rate” value [2] is reported as “no effect”.

With `C[S+]([O-])c1ccc(-c2nc(-c3ccncc3)c(-c3ccc(F)cc3)[nH]2)cc1` (stereo not shown) [SB203580] the “attenuation of caspase activation (caspase-3 activity)” value [3] was “significant attenuation”, the “attenuation of cell death (LDH)” value [4] was “significant attenuation” and the “anterograde FAT rates compared with WT-SOD1-perfused axoplasm” value ([1]; co-perfused with G93A-SOD1, FIG. 2) was “undistinguishable”. For the same molecule, the “prevention of the inhibition of anterograde FAT induced by G93A-SOD1” value [1] was “protective effects; also recorded: completely prevented”.

With “G93A-SOD1: recombinant fALS-related SOD1 mutant G93A” the “increase in overall NF220 phosphorylation” value (NF220 (neurofilament)) was 2 fold, the “change in JNK activity” value (JNK) was “did not reveal changes” and the “effect on anterograde FAT rate” value [2] was “selectively inhibited”. For the same molecule, the “change in ERK activity” value (ERK) was “did not reveal changes”, the “increase in p38 activity (p-p38 immunoblot)” value (p38) was roughly 4 fold and the “change in GSK3 activity” value (GSK3) was “did not reveal changes”.

p38α: recombinant active p38 isoform α was tested, and the “effect on FAT” value ([5]; perfused at 10 nM) was “most closely mimicked; also recorded: selective inhibition of anterograde FAT” and the “phosphorylation of KHC584” value [6] was “phosphorylated”.

B1: p3813: recombinant active p38 isoform β (misprinted) (protein, UniProt Q15759 1-364, looked up)
Mitogen-activated protein …: MSGPRAGFYRQELNKTVWEVPQRLQGLRPVGSGAYGSVCSAYDARLRQKVAVKKLSRPFQSLIHARRTYRELRLLKHLKHENVIGLLDVFTPATSIEDFSEVYLVTTLMGADLNNIVKCQALSDEHVQFLVYQLLRGLKYIHSAGIIHRDLKPSNVAVNEDCELRILDFGLARQADEEMTGYVATRWYRAPEIMLNWMHYNQTVDIWSVGCIMAELLQGKALFPGSDYIDQLKRIMEVVGTPSPEVLAKISSEHARTYIQSLPPMPQKDLSSIFRGANPLAIDLLGRMLVLDSDQRVSAAEALAHAYFSQYHDPEDEPEAEPYDESVEAKERTLEEWKELTYQEVLSFKPPEPPKPPGSLEIEQ
With B1 the “effect on FAT” value ([5]; perfused at 50 nM) was “inhibited both anterograde and retrograde FAT”.

B2: p38γ: recombinant active p38 isoform γ (protein, UniProt P53778 1-367, looked up)
Mitogen-activated protein …: MSSPPPARSGFYRQEVTKTAWEVRAVYRDLQPVGSGAYGAVCSAVDGRTGAKVAIKKLYRPFQSELFAKRAYRELRLLKHMRHENVIGLLDVFTPDETLDDFTDFYLVMPFMGTDLGKLMKHEKLGEDRIQFLVYQMLKGLRYIHAAGIIHRDLKPGNLAVNEDCELKILDFGLARQADSEMTGYVVTRWYRAPEVILNWMRYTQTVDIWSVGCIMAEMITGKTLFKGSDHLDQLKEIMKVTGTPPAEFVQRLQSDEAKNYMKGLPELEKKDFASILTNASPLAVNLLEKMLVLDAEQRVTAGEALAHPYFESLHDTEDEPQVQKYDDSFDDVDRTLDEWKRVTYKEVLSFKPPRQLGARVSKETPL
With B2 the “effect on FAT” value ([5]; perfused at 100 nM) was “lesser extent; also recorded: more modest effect”.

B3: p38δ: recombinant active p38 isoform δ (protein, UniProt O15264 1-365, looked up)
Mitogen-activated protein …: MSLIRKKGFYKQDVNKTAWELPKTYVSPTHVGSGAYGSVCSAIDKRSGEKVAIKKLSRPFQSEIFAKRAYRELLLLKHMQHENVIGLLDVFTPASSLRNFYDFYLVMPFMQTDLQKIMGMEFSEEKIQYLVYQMLKGLKYIHSAGVVHRDLKPGNLAVNEDCELKILDFGLARHADAEMTGYVVTRWYRAPEVILSWMHYNQTVDIWSVGCIMAEMLTGKTLFKGKDYLDQLTQILKVTGVPGTEFVQKLNDKAAKSYIQSLPQTPRKDFTQLFPRASPQAADLLEKMLELDVDKRLTAAQALTHPFFEPFRDPEEETEAQQPFDDSLEHEKLTVDEWKQHIYKEIVNFSPIARKDSRRRSGMKL
In the case of B3, the “effect on FAT” value ([5]; perfused at 50 nM) is reported as “no effect” and the “effect on FAT” value ([5]; perfused at 50 nM, listed as p385) is reported as “did not affect FAT”.
